Laboratory results from US12522614B2, “Topical phosphoinositide 3-kinase inhibitors” (VENTHERA, INC., priority 2019, dated 2026).

Key:
[1] = In vitro human skin permeation study of topical gel formulations (Franz diffusion cells); assay type: in vitro ADME; settings: Study-1, Example 8 gel, human skin
From the text: The gel formulation of Example 8 was used as the donor phase to determine the permeation of Compound 1.002 through human skin and its effectiveness as a topical application. Three skin donors and three diffusion cells (for each donor) per formulation were used in the in vitro skin permeation experiments. Split thickness dermatomed (approximately at […] thickness) human cadaver skin, supplied by New York Firefighters Skin Bank, NY, was used to determine the permeation rate of the tested compound (i.e., the drug) in vitro. All in vitro skin permeation studies were conducted using the Vertical Diffusion Cells assembly with consoles (Model FDC-6), and heating controllers (Logan Instruments Inc. Somerset, NJ). Each assembly consisted of six vertical, jacketed (37° C.±0.5° C.) 12-mL Franz diffusion cells with magnetic stirrer and 1.767 cm^2 diffusion area.
Skin flux studies were run for a period of 48 hours. At predetermined intervals (2, 4, 8, 24 and 48 hours) after starting the experiment, the entire contents of the receiver compartment were collected for determining concentrations of the drug by HPLC. The receiver compartment was refilled with fresh receiver medium. The receiver medium was pH 7.4 phosphate buffer with 0.5 mg/ml of Oleath 20 with the saturation concentration of the drug in the receptor medium being 0.152 mg/ml. This solubility of the drug in the receiver medium was enough to ensure sink conditions throughout each collection interval.
Samples of the receptor phase were obtained at 2, 4, 8, 12, 24 and 48 h and concentrations of Compound 1.002 and 3-(4-morpholinothieno(3,2-d)pyrimidin-2-yl)phenol (metabolite of Compound 1.002, abbreviated as MTPP) were determined using a validated HPLC method. The metabolism of Compound 1.002 to MTPP takes place in the human skin by esterase enzymes.
HPLC method: Column—Gemini C-18 4.6×150 mm, 5 μm particle size; Mobile Phase—water:acetonitrile 25:75 containing 0.1% TFA; Flow Rate—1 mL/min; Detection—274 nm; Column Temperature—40° C.; and Run Time—10 min. The retention times for MTPP and Compound 1.002 were 3.9 and 7.2 minutes, respectively.
The skin flux of drugs and cumulative amount of drugs permeated (sum of MTPP and Compound 1.002) for a period of 48 hours were calculated and are shown in Table 3. FIG. 3 represents a plot of Cumulative amount permeated versus time.

[2] = In vitro skin permeation study, mouse skin vs. human skin; assay type: in vitro ADME; settings: Example 8 gel
Procedure: The gel formulation of Example 8 was used to determine the skin permeation through human and mouse skin. It is important to understand the permeation difference between the two types of skin, because mouse skin is used extensively in toxicology studies as well as in early in vivo studies. The skin permeation study was performed in accordance with the method as described in Example 9.

[3] = Stability study of Compound 1.002 as API (HPLC assay); assay type: physicochemical
From the text: The stability of three lots of Compound 1.002 as Active Pharmaceutical Ingredient (API) was studied for a period of 12 months.

MTOR/FRAP1 = molecular target: T1, MTOR/FRAP1 (Homo sapiens, UniProt P42345); experiment: Lipid kinase inhibitory activity, ADP-Glo; assay type: biochemical
T1 construct: purchased Reaction Biology Corporation (RBC)
Procedure: (§1) Lipid kinases: Lipid kinases from Reaction Biology Corporation (RBC) in ADP-Glo format were used.
(§2) Assay Description: The kinase reactions utilized ATP and produced ADP as a byproduct. The ADP production was quantified by ADP-Glo luminescence detection. This assay was a 3-step reaction. First, the kinase reaction with lipid substrate was carried out in the presence of ATP, and the reaction was quenched and depleted remaining ATP with ADP-Glo™ reagent, and then finally ADP was converted to ATP which was measured using a luciferase/luciferin reaction.
(§3) Assay Procedure: The assay was performed according to the steps as follows: • 1. Preparing substrate in freshly prepared reaction buffer; • 2. Delivering kinase into the substrate solution and gently mixing; • 3. Delivering compounds in […] into the kinase reaction mixture by Acoustic technology (Echo550; nanoliter range), incubating for 20 minutes at room temperature; • 4. Delivering ATP into the reaction mixture to initiate the reaction; • 5. Incubating for 30 minutes at 30° C.; • 6. Quenching the reaction with ADP-Glo reagent and incubating for 40 minutes; • 7. Adding Detection Mixture and incubating for 30 minutes; and • 8. Measuring luminescence.
(§4) Data Analysis: The luminescence was converted into μM ADP production based on ADP standard curves. The nonlinear regression to obtain the standard curve and IC50 values were performed using Graphpad Prism software.

PI3K (p110a(E542K)/p85a) = molecular target: T2, PI3K (p110a(E542K)/p85a) (Homo sapiens, UniProt P42336, E542K); experiment: Lipid kinase inhibitory activity, ADP-Glo; assay type: biochemical; settings: α E542K
T2 construct: purchased Reaction Biology Corporation (RBC)
Procedure: as §1, §2, §3, §4

PI3K (p110a(E545K)/p85a) = molecular target: T3, PI3K (p110a(E545K)/p85a) (Homo sapiens, UniProt P42336, E545K); experiment: Lipid kinase inhibitory activity, ADP-Glo; assay type: biochemical; settings: α E545K
T3 construct: purchased Reaction Biology Corporation (RBC)
Procedure: as §1, §2, §3, §4

[4] = molecular target: T4, PI3K (p110a(H1047R)/p85a) (Homo sapiens, UniProt P42336, H1047R); experiment: Lipid kinase inhibitory activity, ADP-Glo; assay type: biochemical; settings: α H1047R
T4 construct: purchased Reaction Biology Corporation (RBC)
Procedure: as §1, §2, §3, §4

PI3Ka (p110a/p85a) = molecular target: T5, PI3Ka (p110a/p85a) (Homo sapiens, UniProt P42336); experiment: Lipid kinase inhibitory activity, ADP-Glo; assay type: biochemical; settings: α
T5 construct: purchased Reaction Biology Corporation (RBC)
Procedure: as §1, §2, §3, §4

PI3Kb (p110b/p85a) = molecular target: T6, PI3Kb (p110b/p85a) (Homo sapiens, UniProt P42338); experiment: Lipid kinase inhibitory activity, ADP-Glo; assay type: biochemical; settings: β
T6 construct: purchased Reaction Biology Corporation (RBC)
Procedure: as §1, §2, §3, §4

PI3Kd (p110d/p85a) = molecular target: T7, PI3Kd (p110d/p85a) (Homo sapiens, UniProt O00329); experiment: Lipid kinase inhibitory activity, ADP-Glo; assay type: biochemical; settings: δ
T7 construct: purchased Reaction Biology Corporation (RBC)
Procedure: as §1, §2, §3, §4

PI3Kg (p110g) = molecular target: T8, PI3Kg (p110g) (Homo sapiens, UniProt P48736); experiment: Lipid kinase inhibitory activity, ADP-Glo; assay type: biochemical; settings: γ
T8 construct: purchased Reaction Biology Corporation (RBC)
Procedure: as §1, §2, §3, §4

T8 sequence (P48736 whole entry): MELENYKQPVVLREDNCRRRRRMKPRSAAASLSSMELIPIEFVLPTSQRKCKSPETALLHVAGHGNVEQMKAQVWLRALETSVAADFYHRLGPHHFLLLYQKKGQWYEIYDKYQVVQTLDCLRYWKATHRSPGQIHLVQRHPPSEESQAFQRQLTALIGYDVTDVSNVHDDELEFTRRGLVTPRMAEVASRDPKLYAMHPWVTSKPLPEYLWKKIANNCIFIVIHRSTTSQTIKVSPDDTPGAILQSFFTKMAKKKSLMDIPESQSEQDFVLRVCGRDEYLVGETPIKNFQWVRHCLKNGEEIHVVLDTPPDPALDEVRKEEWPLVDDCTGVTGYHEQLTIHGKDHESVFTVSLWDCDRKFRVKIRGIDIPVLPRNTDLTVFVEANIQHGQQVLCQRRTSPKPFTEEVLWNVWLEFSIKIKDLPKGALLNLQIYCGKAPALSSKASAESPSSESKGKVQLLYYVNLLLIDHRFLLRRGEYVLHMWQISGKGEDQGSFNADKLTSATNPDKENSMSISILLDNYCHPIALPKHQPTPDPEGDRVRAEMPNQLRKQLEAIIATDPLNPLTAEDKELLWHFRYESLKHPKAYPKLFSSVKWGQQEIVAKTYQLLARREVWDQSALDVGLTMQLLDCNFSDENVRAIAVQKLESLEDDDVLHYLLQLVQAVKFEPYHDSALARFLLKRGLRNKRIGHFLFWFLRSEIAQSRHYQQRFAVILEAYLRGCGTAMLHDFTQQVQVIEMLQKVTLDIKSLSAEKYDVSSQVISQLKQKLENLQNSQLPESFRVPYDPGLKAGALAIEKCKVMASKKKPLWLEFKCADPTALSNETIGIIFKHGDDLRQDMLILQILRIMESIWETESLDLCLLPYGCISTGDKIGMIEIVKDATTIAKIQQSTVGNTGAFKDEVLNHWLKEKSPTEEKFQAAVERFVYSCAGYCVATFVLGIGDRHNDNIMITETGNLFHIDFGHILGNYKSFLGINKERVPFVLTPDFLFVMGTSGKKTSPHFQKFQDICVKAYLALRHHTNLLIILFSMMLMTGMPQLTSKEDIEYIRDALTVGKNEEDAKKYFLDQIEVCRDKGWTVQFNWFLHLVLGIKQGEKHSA
T6 sequence (P42338 whole entry): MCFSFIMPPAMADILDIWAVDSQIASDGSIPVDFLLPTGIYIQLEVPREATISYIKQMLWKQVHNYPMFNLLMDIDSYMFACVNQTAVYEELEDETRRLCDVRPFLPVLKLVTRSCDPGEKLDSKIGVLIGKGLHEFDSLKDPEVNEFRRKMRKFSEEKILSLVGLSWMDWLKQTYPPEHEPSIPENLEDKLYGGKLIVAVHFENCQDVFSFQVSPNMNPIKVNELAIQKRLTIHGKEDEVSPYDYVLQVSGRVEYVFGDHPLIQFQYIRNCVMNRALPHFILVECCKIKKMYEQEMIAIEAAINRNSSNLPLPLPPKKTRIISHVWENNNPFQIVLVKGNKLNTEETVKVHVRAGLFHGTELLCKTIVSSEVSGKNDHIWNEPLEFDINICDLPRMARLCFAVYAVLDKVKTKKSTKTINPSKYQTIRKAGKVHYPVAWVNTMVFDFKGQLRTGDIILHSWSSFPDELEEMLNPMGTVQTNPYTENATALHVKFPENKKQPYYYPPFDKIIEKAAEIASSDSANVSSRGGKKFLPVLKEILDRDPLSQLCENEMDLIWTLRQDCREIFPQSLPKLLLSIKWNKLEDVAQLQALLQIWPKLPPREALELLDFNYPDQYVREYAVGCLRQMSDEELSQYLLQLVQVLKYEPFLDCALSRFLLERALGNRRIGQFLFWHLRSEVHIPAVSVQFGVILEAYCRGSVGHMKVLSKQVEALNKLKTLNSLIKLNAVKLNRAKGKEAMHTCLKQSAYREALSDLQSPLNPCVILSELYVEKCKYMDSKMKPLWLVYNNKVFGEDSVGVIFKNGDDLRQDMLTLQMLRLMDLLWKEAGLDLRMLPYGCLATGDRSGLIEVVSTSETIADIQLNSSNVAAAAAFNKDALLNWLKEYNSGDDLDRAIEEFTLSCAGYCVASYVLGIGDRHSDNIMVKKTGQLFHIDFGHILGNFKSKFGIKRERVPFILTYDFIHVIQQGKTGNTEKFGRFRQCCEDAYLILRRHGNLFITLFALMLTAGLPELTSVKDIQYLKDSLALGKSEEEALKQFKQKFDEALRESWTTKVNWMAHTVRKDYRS
T6 sequence (P27986 whole entry partner): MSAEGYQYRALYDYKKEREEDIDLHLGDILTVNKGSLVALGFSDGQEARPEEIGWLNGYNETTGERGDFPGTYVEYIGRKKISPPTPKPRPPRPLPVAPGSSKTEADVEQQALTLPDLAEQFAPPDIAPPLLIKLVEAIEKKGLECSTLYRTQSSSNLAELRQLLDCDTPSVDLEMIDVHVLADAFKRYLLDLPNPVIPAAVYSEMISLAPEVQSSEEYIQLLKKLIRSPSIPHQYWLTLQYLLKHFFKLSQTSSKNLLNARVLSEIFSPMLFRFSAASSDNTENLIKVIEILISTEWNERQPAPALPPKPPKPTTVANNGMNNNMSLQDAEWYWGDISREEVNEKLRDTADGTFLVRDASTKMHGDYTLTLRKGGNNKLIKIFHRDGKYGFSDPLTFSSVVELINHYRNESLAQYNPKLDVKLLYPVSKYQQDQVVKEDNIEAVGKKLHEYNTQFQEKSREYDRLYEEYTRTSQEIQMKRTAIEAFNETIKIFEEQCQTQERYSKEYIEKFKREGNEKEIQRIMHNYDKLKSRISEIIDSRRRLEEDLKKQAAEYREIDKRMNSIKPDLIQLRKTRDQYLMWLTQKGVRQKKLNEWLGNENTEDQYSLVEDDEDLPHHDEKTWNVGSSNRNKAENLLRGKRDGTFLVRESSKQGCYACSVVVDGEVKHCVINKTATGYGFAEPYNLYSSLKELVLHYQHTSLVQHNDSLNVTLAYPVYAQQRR
T4 sequence (P42336 whole entry H1047R): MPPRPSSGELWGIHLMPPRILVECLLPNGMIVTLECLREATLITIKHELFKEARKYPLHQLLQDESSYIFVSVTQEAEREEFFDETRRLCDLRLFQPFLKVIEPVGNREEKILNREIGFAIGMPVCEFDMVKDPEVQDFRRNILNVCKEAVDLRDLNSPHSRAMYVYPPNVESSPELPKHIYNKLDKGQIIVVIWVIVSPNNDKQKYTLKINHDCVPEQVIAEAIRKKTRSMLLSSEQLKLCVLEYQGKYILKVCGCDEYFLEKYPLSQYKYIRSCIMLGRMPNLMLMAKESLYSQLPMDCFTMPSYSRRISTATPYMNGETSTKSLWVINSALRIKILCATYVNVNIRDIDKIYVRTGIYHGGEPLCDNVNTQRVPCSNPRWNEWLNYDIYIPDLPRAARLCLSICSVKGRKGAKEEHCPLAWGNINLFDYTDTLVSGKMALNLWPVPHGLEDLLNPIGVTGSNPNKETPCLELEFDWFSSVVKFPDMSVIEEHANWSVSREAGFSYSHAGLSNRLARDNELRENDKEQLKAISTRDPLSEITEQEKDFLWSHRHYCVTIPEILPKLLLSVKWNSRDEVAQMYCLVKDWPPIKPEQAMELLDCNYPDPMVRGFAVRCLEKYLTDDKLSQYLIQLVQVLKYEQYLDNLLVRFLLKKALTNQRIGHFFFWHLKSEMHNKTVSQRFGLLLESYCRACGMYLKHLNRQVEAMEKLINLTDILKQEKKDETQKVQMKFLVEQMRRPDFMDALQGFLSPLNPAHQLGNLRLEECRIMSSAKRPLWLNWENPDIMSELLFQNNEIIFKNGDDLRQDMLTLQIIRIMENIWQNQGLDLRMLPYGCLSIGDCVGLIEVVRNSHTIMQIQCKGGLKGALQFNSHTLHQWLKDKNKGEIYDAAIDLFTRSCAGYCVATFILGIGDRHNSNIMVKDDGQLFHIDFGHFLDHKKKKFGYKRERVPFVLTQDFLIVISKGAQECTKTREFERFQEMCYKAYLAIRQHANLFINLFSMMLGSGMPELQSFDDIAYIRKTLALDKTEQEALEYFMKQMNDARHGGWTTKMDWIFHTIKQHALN
T4 sequence (P27986 whole entry partner): as the sequence (P27986 whole entry partner) above
T2 sequence (P42336 whole entry E542K): as the sequence (P42336 whole entry H1047R) above, with E542K, R1047H counted along it
T2 sequence (P27986 whole entry partner): as the sequence (P27986 whole entry partner) above
T3 sequence (P42336 whole entry E545K): as the sequence (P42336 whole entry H1047R) above, with E545K, R1047H counted along it
T3 sequence (P27986 whole entry partner): as the sequence (P27986 whole entry partner) above
T5 sequence (P42336 whole entry): as the sequence (P42336 whole entry H1047R) above, with R1047H counted along it
T5 sequence (P27986 whole entry partner): as the sequence (P27986 whole entry partner) above

**Q.** With `CC(=O)Oc1cccc(-c2nc(N3CCOCC3)c3sccc3n2)c1` [Compound 1.002, 3-(4-Morpholinothieno[3,2-d]pyrimidin-2-yl)phenyl Acetate] as the compound, how does the “Hydrolysis of Cmpd. 1.002 to MTPP” value ([1]; Donor 2, 4 h) read?
**A.** Its value is 100%.

**Q.** What about the “Cumulative permeation, Cmpd. 1.002” value ([1]; Donor 3, 2 h) of the same compound?
**A.** The value was 0.00 μg/cm^2.

**Q.** What about the “Permeation through mouse skin compared with human skin” value ([2]; 48 hours, FIG. 5) of the same compound?
**A.** The value was “approximately three times higher”.

**Q.** What about the “Metabolism of Compound 1.002 to MTPP in human and mouse skin” value ([2]; both skin types) of the same compound?
**A.** The value was “proceeded equally well”.

**Q.** And the “Compound 1.002 Purity by a HPLC Assay Method” value (shortened to “Compound 1.002 Purity”) ([3]; Lot-1, 25° C./60% RH, 0 months)?
**A.** The value was 99.5%.

**Q.** What about the “Compound 1.002 Purity” value ([3]; Lot-1, 25° C./60% RH, 3 months) of the same compound?
**A.** The value was 99.4%.

**Q.** What about the “Compound 1.002 Purity” value ([3]; Lot-1, 25° C./60% RH, 6 months) of the same compound?
**A.** Its value is 99.6%.

**Q.** And the “Compound 1.002 Purity” value ([3]; Lot-1, 25° C./60% RH, 9 months)?
**A.** The value was 99.8%.

**Q.** And the “Compound 1.002 Purity” value ([3]; Lot-1, 25° C./60% RH, 12 months)?
**A.** The value was 99.9%.

**Q.** And the “Compound 1.002 Purity” value ([3]; Lot-1, 40° C./75% RH, 0 months)?
**A.** Its value is 99.5%.

**Q.** What about the “Compound 1.002 Purity” value ([3]; Lot-1, 40° C./75% RH, 3 months) of the same compound?
**A.** Its value is 99.2%.

**Q.** And the “Compound 1.002 Purity” value ([3]; Lot-1, 40° C./75% RH, 6 months)?
**A.** Its value is 99.5%.

**Q.** And the “Compound 1.002 Purity” value ([3]; Lot-2, 40° C./75% RH, 0 months)?
**A.** Its value is 99.4%.

**Q.** What about the “Compound 1.002 Purity” value ([3]; Lot-2, 40° C./75% RH, 1 month) of the same compound?
**A.** The value was 100.0%.

**Q.** What about the “Compound 1.002 Purity” value ([3]; Lot-2, 40° C./75% RH, 2 months) of the same compound?
**A.** The value was 99.3%.

**Q.** What about the “Compound 1.002 Purity” value ([3]; Lot-2, 40° C./75% RH, 3 months) of the same compound?
**A.** The value was 97.9%.

**Q.** What about the “Compound 1.002 Purity” value ([3]; Lot-2, 40° C./75% RH, 6 months) of the same compound?
**A.** The value was 100.0%.

**Q.** And the “Compound 1.002 Purity” value ([3]; Lot-3, 40° C./75% RH, 0 months)?
**A.** Its value is 100.0%.

**Q.** And the “Compound 1.002 Purity” value ([3]; Lot-3, 40° C./75% RH, 1 month)?
**A.** Its value is 100.0%.

**Q.** What about the “Compound 1.002 Purity” value ([3]; Lot-3, 40° C./75% RH, 2 months) of the same compound?
**A.** Its value is 100.0%.

**Q.** And the “Compound 1.002 Purity” value ([3]; Lot-3, 40° C./75% RH, 3 months)?
**A.** The value was 98.9%.

**Q.** And the “Compound 1.002 Purity” value ([3]; Lot-3, 40° C./75% RH, 6 months)?
**A.** The value was 100.0%.

**Q.** And the IC50 (MTOR/FRAP1)?
**A.** The IC50 was 1410 nM.

**Q.** And the IC50 (PI3K (p110a(E542K)/p85a))?
**A.** Its IC50 is 42 nM.

**Q.** What about the IC50 (PI3K (p110a(E545K)/p85a)) of the same compound?
**A.** Its IC50 is 49 nM.

**Q.** And the IC50 [4]?
**A.** Its IC50 is 59 nM.

**Q.** And the IC50 (PI3Ka (p110a/p85a))?
**A.** Its IC50 is 35 nM.

**Q.** What about the IC50 (PI3Kb (p110b/p85a)) of the same compound?
**A.** The IC50 was 257 nM.

**Q.** And the IC50 (PI3Kd (p110d/p85a))?
**A.** The IC50 was 83 nM.

**Q.** And the IC50 (PI3Kg (p110g))?
**A.** The IC50 was 544 nM.
